Measurements from the CheMixHub viscosity set.
± gives the uncertainty stated by the source.

Test: xn = mol fraction of the nth substance listed

C1CC[C@H]2CCCC[C@H]2C1 + CC1CCCCC1
viscosity [mPa·s], 100 kPa
Conditions	x2 = 0.125	x2 = 0.25	x2 = 0.375	x2 = 0.5	x2 = 0.625	x2 = 0.75	x2 = 0.875
293.15 K	2.749 ± 0.07	2.287 ± 0.056	1.867 ± 0.046	1.541 ± 0.037	1.3 ± 0.031	1.076 ± 0.025	0.894 ± 0.021
303.15 K	2.241 ± 0.057	1.912 ± 0.047	1.567 ± 0.038	1.312 ± 0.031	1.096 ± 0.026	0.935 ± 0.022	0.776 ± 0.018
313.15 K	1.858 ± 0.046	1.6 ± 0.039	1.326 ± 0.032	1.123 ± 0.027	0.944 ± 0.022	0.824 ± 0.019	0.674 ± 0.015
323.15 K	1.578 ± 0.039	1.367 ± 0.033	1.168 ± 0.028	0.986 ± 0.023	0.837 ± 0.02	0.701 ± 0.016	0.604 ± 0.014

CC(CC(C)(C)C)CC(C)(C)CC(C)(C)C (stereo not drawn) + CC1CCCCC1
viscosity [mPa·s], 100 kPa
Conditions	x2 = 0.125	x2 = 0.25	x2 = 0.375	x2 = 0.5	x2 = 0.625	x2 = 0.75	x2 = 0.875
293.15 K	3.188 ± 0.082	2.761 ± 0.068	2.275 ± 0.056	1.89 ± 0.046	1.52 ± 0.037	1.244 ± 0.029	0.967 ± 0.023
303.15 K	2.553 ± 0.065	2.272 ± 0.057	1.864 ± 0.046	1.556 ± 0.038	1.283 ± 0.031	1.047 ± 0.025	0.834 ± 0.019
313.15 K	2.1 ± 0.053	1.886 ± 0.047	1.574 ± 0.038	1.32 ± 0.032	1.096 ± 0.026	0.908 ± 0.021	0.725 ± 0.017
323.15 K	1.766 ± 0.044	1.538 ± 0.038	1.329 ± 0.032	1.136 ± 0.027	0.953 ± 0.022	0.802 ± 0.019	0.641 ± 0.015

CCCC(C)O (stereo not drawn) + CC1CCCCC1
viscosity [mPa·s], 100 kPa
Conditions	x2 = 0.081	x2 = 0.16	x2 = 0.2399	x2 = 0.3501	x2 = 0.4399	x2 = 0.56	x2 = 0.6499	x2 = 0.7401	x2 = 0.8499	x2 = 0.94
293.15 K	3.09 ± 0.37	2.46 ± 0.3	1.96 ± 0.24	1.48 ± 0.18	1.23 ± 0.15	1.05 ± 0.13	0.98 ± 0.12	0.93 ± 0.11	0.88 ± 0.11	0.8 ± 0.1
298.15 K	2.56 ± 0.31	2.05 ± 0.25	1.66 ± 0.2	1.26 ± 0.15	1.06 ± 0.13	0.92 ± 0.11	0.86 ± 0.1	0.82 ± 0.1	0.79 ± 0.1	0.73 ± 0.09
303.15 K	2.15 ± 0.26	1.74 ± 0.21	1.43 ± 0.17	1.11 ± 0.13	0.95 ± 0.11	0.83 ± 0.1	0.79 ± 0.1	0.77 ± 0.09	0.73 ± 0.09	0.68 ± 0.08
308.15 K	1.83 ± 0.22	1.5 ± 0.18	1.24 ± 0.15	0.99 ± 0.12	0.86 ± 0.1	0.75 ± 0.09	0.71 ± 0.09	0.69 ± 0.08	0.67 ± 0.08	0.63 ± 0.08
313.15 K	1.57 ± 0.19	1.31 ± 0.16	1.1 ± 0.13	0.89 ± 0.11	0.78 ± 0.09	0.7 ± 0.08	0.67 ± 0.08	0.65 ± 0.08	0.63 ± 0.08	0.59 ± 0.07
318.15 K	1.35 ± 0.16	1.13 ± 0.14	0.96 ± 0.12	0.8 ± 0.1	0.72 ± 0.09	0.66 ± 0.08	0.64 ± 0.08	0.62 ± 0.07	0.6 ± 0.07	0.57 ± 0.07
323.15 K	1.17 ± 0.14	1 ± 0.12	0.86 ± 0.1	0.72 ± 0.09	0.66 ± 0.08	0.61 ± 0.07	0.58 ± 0.07	0.57 ± 0.07	0.56 ± 0.07	0.54 ± 0.07

COCCO + CC1COC(=O)O1
viscosity [mPa·s], 101.33 kPa
Conditions	298.15 K	308.15 K	318.15 K
x1 = 0.0271	2.41 ± 0.018	–	–
x1 = 0.0632	2.298 ± 0.029	1.913 ± 0.024	1.612 ± 0.021
x1 = 0.0927	2.24 ± 0.017	–	–
x1 = 0.1045	2.193 ± 0.027	1.824 ± 0.023	1.541 ± 0.02
x1 = 0.1523	2.104 ± 0.026	1.756 ± 0.022	1.484 ± 0.019
x1 = 0.1824	2.057 ± 0.015	–	–
x1 = 0.2117	2.004 ± 0.025	1.679 ± 0.021	1.423 ± 0.018
x1 = 0.2527	1.95 ± 0.025	1.634 ± 0.021	1.381 ± 0.018
x1 = 0.2995	1.917 ± 0.014	–	–
x1 = 0.305	1.89 ± 0.024	1.581 ± 0.02	1.339 ± 0.017
x1 = 0.3489	1.843 ± 0.023	1.537 ± 0.02	1.306 ± 0.017
x1 = 0.397	1.794 ± 0.023	1.492 ± 0.019	1.273 ± 0.017
x1 = 0.4053	1.813 ± 0.013	–	–
x1 = 0.4225	1.787 ± 0.013	–	–
x1 = 0.4547	1.745 ± 0.022	1.456 ± 0.019	1.224 ± 0.016
x1 = 0.4942	1.738 ± 0.013	–	–
x1 = 0.4979	1.717 ± 0.022	1.43 ± 0.018	1.214 ± 0.016
x1 = 0.5467	1.7 ± 0.013	–	–
x1 = 0.5531	1.68 ± 0.021	–	1.183 ± 0.015
x1 = 0.5954	1.664 ± 0.021	1.385 ± 0.018	1.172 ± 0.015
x1 = 0.5956	1.674 ± 0.012	–	–
x1 = 0.6388	–	1.361 ± 0.018	1.147 ± 0.015
x1 = 0.6429	1.652 ± 0.012	–	–
x1 = 0.6954	1.619 ± 0.021	1.341 ± 0.017	1.127 ± 0.015
x1 = 0.7027	1.626 ± 0.012	–	–
x1 = 0.7088	1.626 ± 0.012	–	–
x1 = 0.7346	1.593 ± 0.02	1.325 ± 0.017	1.111 ± 0.015
x1 = 0.7911	1.602 ± 0.012	–	–
x1 = 0.7959	1.574 ± 0.02	1.31 ± 0.017	1.098 ± 0.015
x1 = 0.8414	1.569 ± 0.02	1.297 ± 0.017	1.083 ± 0.014
x1 = 0.864	1.575 ± 0.011	–	–
x1 = 0.9025	1.545 ± 0.02	1.276 ± 0.017	1.076 ± 0.014
x1 = 0.9325	1.552 ± 0.011	–	–
x1 = 0.9593	1.546 ± 0.02	1.266 ± 0.017	1.055 ± 0.014
x2 = 0.0163	1.534 ± 0.011	–	–

CCCC(=O)O + CC#N
viscosity [mPa·s], 101 kPa
Conditions	x1 = 0.0598	x1 = 0.1252	x1 = 0.1971	x1 = 0.2763	x1 = 0.3641	x1 = 0.4621	x1 = 0.572	x1 = 0.6961	x1 = 0.8375
298.15 K	0.3944 ± 0.023	0.4377 ± 0.024	0.5044 ± 0.024	0.5968 ± 0.026	0.717 ± 0.028	0.8653 ± 0.031	1.039 ± 0.035	1.229 ± 0.039	1.415 ± 0.043
308.15 K	0.3452 ± 0.022	0.3849 ± 0.023	0.4455 ± 0.024	0.5285 ± 0.025	0.6349 ± 0.027	0.7632 ± 0.029	0.9084 ± 0.032	1.058 ± 0.035	1.187 ± 0.038
318.15 K	0.3146 ± 0.022	0.3681 ± 0.023	0.4272 ± 0.023	0.4922 ± 0.024	0.5632 ± 0.025	0.6398 ± 0.027	0.7209 ± 0.028	0.8039 ± 0.03	0.8836 ± 0.031

COCCO + CC#N
298 K, 101.33 kPa
Conditions	viscosity [mPa·s]
x1 = 0.097	0.391 ± 0.007
x1 = 0.1987	0.455 ± 0.007
x1 = 0.2949	0.529 ± 0.008
x1 = 0.404	0.631 ± 0.009
x1 = 0.4985	0.736 ± 0.01
x1 = 0.5987	0.866 ± 0.011
x1 = 0.6932	0.991 ± 0.013
x1 = 0.7991	1.171 ± 0.015
x1 = 0.9035	1.361 ± 0.017
